Measured values from ChEMBL document CHEMBL4715865, “Antimyeloma Potential of Caffeic Acid Phenethyl Ester and Its Analogues through Sp1 Mediated Downregulation of IKZF1-IRF4-MYC Axis” (J Nat Prod, 2020).
The source made the active and inactive calls. The calls are words filed in the database; no cut-off is given here.

What was measured:
KMM-1 [1] = test: (§1) Growth inhibition of human KMM-1 cells at 10 uM after 48 hrs by PrestoBlue cell viability assay relative to control; format: functional
KMM-1 [2] = test: Growth inhibition of human KMM-1 cells at 0.001 to 50 uM after 48 hrs by PrestoBlue cell viability assay; format: functional, cell-based; conditions: dose 0.001-50 µM
[3] = Induction of apoptosis in human KMM-1 cells assessed as apoptotic cells at 10 uM after 72 hrs by Annexin V/PropidiumIodide staining based flow cytometric analysis relative to control; format: functional
[4] = Induction of apoptosis in human MM1.R cells assessed as apoptotic cells at 10 uM after 72 hrs by Annexin V/PropidiumIodide staining based flow cytometric analysis relative to control; format: functional, MM.1R
[5] = Growth inhibition of human KMM-1 cells after 48 hrs by PrestoBlue cell viability assay; format: functional, cell-based; conditions: KMM-1, 48 h
JJN-3 [6] = test: Growth inhibition of human JJN-3 cells after 48 hrs by PrestoBlue cell viability assay; format: functional, cell-based; conditions: JJN-3, 48 h
[7] = Growth inhibition of human MM1.R cells after 48 hrs by PrestoBlue cell viability assay; format: functional; conditions: MM.1R
[8] = as §1; format: functional; conditions: read-out: GI
[9] = Potency index, ratio of lenalidomide IC50 to test compound IC50 for growth inhibition of human KMM-1 cells; format: functional
MM.1R [10] = test: Down regulation of IKZF1 protein expression in human MM1.R cells at 5 to 10 uM after 48 hrs by immunoblotting analysis; format: functional, cell-based; conditions: dose 5-10 µM
MM.1R [11] = test: Down regulation of IKZF3 protein expression in human MM1.R cells at 5 to 10 uM after 48 hrs by immunoblotting analysis; format: functional, cell-based; conditions: dose 5-10 µM
MM.1R [12] = test: Down regulation of MYC protein expression in human MM1.R cells at 5 to 10 uM after 48 hrs by immunoblotting analysis; format: functional, cell-based; conditions: dose 5-10 µM
MM.1R [13] = test: Down regulation of SP1 protein expression in human MM1.R cells at 10 uM after 48 hrs by immunoblotting analysis; format: functional, cell-based
JJN-3 [14] = test: Down regulation of SP1 protein expression in human JJN-3 cells at 10 uM after 48 hrs by immunoblotting analysis; format: functional, cell-based
MM.1R [15] = test: Induction of apoptosis in human MM1.R cells assessed as increase in cleaved caspace-8 protein expression at 10 uM after 48 hrs by immunoblotting analysis; format: functional, cell-based
JJN-3 [16] = test: Down regulation of IRF4 protein expression in human JJN-3 cells at 10 to 100 uM after 48 hrs in presence of TMP by immunoblotting analysis; format: functional, cell-based; conditions: dose 10-100 µM
JJN-3 [17] = test: Down regulation of IKZF1 protein expression in human JJN-3 cells at 10 to 100 uM after 48 hrs in presence of TMP by immunoblotting analysis; format: functional, cell-based; conditions: dose 10-100 µM
JJN-3 [18] = test: Induction of apoptosis in human JJN-3 cells assessed as increase in cleaved caspace-8 protein expression at 10 to 50 uM after 48 hrs by […]; format: functional, cell-based; conditions: dose 10-50 µM
MM.1R [19] = test: Induction of apoptosis in human MM1.R cells at 10 uM after 48 hrs by Annexin V/Propidium Iodide flow cytometric analysis; format: functional, cell-based

**Q.** With `COc1cc(/C=C/C(=O)OCCc2ccccc2)cc(OC)c1O` as the molecule, how does the “growth inhibition (GI)” value (KMM-1 [1]) read?
**A.** Its value is “inactive”.

**Q.** Which “growth inhibition (GI)” value (KMM-1 [1]) does the source give for `O=C(/C=C/c1ccc(O)cc1O)OCCCc1ccccc1` here?
**A.** The value was “inactive”.

**Q.** For `Nc1cccc2c1C(=O)N(C1CCC(=O)NC1=O)C2=O` (stereo not given) [POMALIDOMIDE], which “growth inhibition (GI)” value (KMM-1 [2]) is on record?
**A.** Its value is “inactive”.

**Q.** And the Activity [3]?
**A.** The Activity was 18.4%.

**Q.** And the Activity [4]?
**A.** The Activity was 43%.

**Q.** Which “growth inhibition (GI)” value (KMM-1 [1]) does the source give for `O=C(/C=C/c1cccc(O)c1O)OCCCc1ccccc1` here?
**A.** Its value is “inactive”.

**Q.** Which results are given for `O=C(/C=C/c1cc(O)ccc1O)OCCCc1ccccc1`?
**A.** IC50 [5]: 1900 nM; IC50 (JJN-3 [6]): 3900 nM; IC50 [7]: 600 nM; inhibition of growth at 10 µM [8]: 89.7%; Ratio IC50 [9]: 12; Activity [3]: 64.5%; Activity [4]: 54%; Activity (MM.1R [10]): Active; Activity (MM.1R [11]): Active; Activity (MM.1R [12]): Active; Activity (MM.1R [13]): Active; Activity (JJN-3 [14]): Active; Activity (MM.1R [15]): Active; Activity (JJN-3 [16]): Active; Activity (JJN-3 [17]): Active; Activity (JJN-3 [18]): Active; Activity (MM.1R [19]): Active

**Q.** With `COc1cc(/C=C/C(=O)OCCc2ccccc2)ccc1O` as the molecule, how does the “growth inhibition (GI)” value (KMM-1 [1]) read?
**A.** The value was “inactive”.

**Q.** With `COc1cc(/C=C/C(=O)OCCCc2ccccc2)cc(OC)c1O` as the molecule, how does the “growth inhibition (GI)” value (KMM-1 [1]) read?
**A.** The value was “inactive”.
